# Reference: ChEMBL document CHEMBL1142649, “Asymmetric synthesis of novel tetrahydroquinoline derivatives with a sugar building block and their bioactivities” (Bioorg Med Chem Lett, 2005)
# Experiments:
# [1] = system: HeLa; experiment: Inhibitory concentration against human cervical carcinoma cell line at 48 hours; assay type: functional, cell-based
# [2] = Inhibitory concentration against human esophagus cancer cell line at 72 hours; assay type: functional, cell-based; details: cancer cell lines
SMILES,IC50 [1] [µg/mL],IC50 [2] [µg/mL]
CC(=O)O[C@@H]1COC2C1OCC21Nc2ccc(C)cc2[C@]2(Nc3ccc(C)cc3)C3OC[C@@H](OC(C)=O)C3OC12 (some centres not stated),150,135
O[C@@H]1COC2C1OCC21Nc2ccccc2[C@]2(Nc3ccccc3)C3OC[C@@H](O)C3OC12 (some centres not stated),> 1000,> 1000

# Further lines, results first:
IC50 [1] [µg/mL],IC50 [2] [µg/mL],SMILES
276,95,Cc1cccc(NC23c4ccc(C)cc4NC4(COC5C4OC[C@H]5O)C2O[C@H]2C3OC[C@H]2O)c1 (some centres not stated)
> 1000,240,Cc1ccc(N[C@]23c4cc(C)ccc4NC4(COC5C4OC[C@H]5O)C2OC2C3OC[C@H]2O)cc1 (some centres not stated)
648,> 1000,COc1ccc(N[C@]23c4cc(OC)ccc4NC4(COC5[C@H](O)CO[C@@H]54)C2OC2C3OC[C@H]2O)cc1 (some centres not stated)
> 1000,78,Oc1ccc(NC23c4cc(O)ccc4NC4(COC5C4OC[C@H]5O)C2OC2C3OC[C@H]2O)cc1 (some centres not stated)
